This passage reports EC50 and melting point results from patent US7776883B2, “Quinolin-4-ones as inhibitors of retroviral integrase for the treatment of HIV, AIDS and AIDS related complex (ARC)” (The United States of America as represented by the …, priority 2004, dated 2010).

Each structure is given as a SMILES string.

One data set has as its system HIV-1, IIIB strain. The experiment in a line: Inhibition of HIV-1-induced cytopathicity in acutely infected MT-4 cells (MTT method). The format is cell-based. The settings on record: Human immunodeficiency virus 1, IIIB, MT4, 96 h, 4-day incubation, read-out: 50% effective concentration value (EC50). As for the experimental part: Several of the compounds disclosed herein were tested for their ability to inhibit HIV cell multiplication. The compounds were solubilized in dimethyl sulfoxide at 200 mM and then diluted into culture medium. MT-4, C8166, H9/IIIB cells were grown at 37° C. in a 5% CO2 atmosphere in RPMI 1640 medium, supplemented with 10% fetal calf serum (FCS), 100 IU/mL penicillin G and 100 μg/mL streptomycin. Cell cultures were checked periodically for the absence of mycoplasma contamination with a MycoTect Kit (Gibco). Human immunodeficiency viruses type-1 (HIV-1, IIIB strain) were obtained from supernatants of persistently infected H9/IIIB. HIV-1 stock solutions had titres of 4.5×10^6 50% cell culture infectious dose (CCID50)/mL. Titration of HIV-1 was performed in C8166 cells by the standard limiting dilution method (dilution 1:2, four replica wells/dilution) in 96-well plates. The infectious virus titer was determined by light microscope scoring of cytopathicity after 4 days of incubation and the virus titers were expressed as CCID50/mL.
Activity of the compounds against HIV-1 multiplication in acutely infected cells was based on the inhibition of virus-induced cytopathicity in MT-4 cells. Briefly, 50 μL of culture medium containing 1×10^4 cells were added to each well of flat-bottom microtiter trays containing 50 μL of culture medium with or without various concentrations of the test compounds. Then 20 μL of an HIV-1 suspension containing 100 CCID50 was added. After a 4-day incubation at 37° C., the number of viable cells was determined by the 3-(4,5-dimethylthiazol-[…])-2,5-diphenyltetrazolium bromide (MTT) method (Pauwels, R.; Balzarini, J.; Baba, M.; Snoeck, R.; Schols, D.; Herdewijn, P.; Desmyster, J.; De Clercq, E. J. Virol. Methods 1988, 20, 309-321). Cytotoxicity of the compounds was evaluated in parallel with their antiviral activity, and was based on the viability of mock-infected cells, as monitored by the MTT method.
A general note: Protection from cytopathic effect is a common read-out in antiviral testing.

Regarding `CCOC(=O)C(=O)CC(=O)c1cn(Cc2ccc(F)cc2)c2ccccc2c1=O` [RDS1624, 4-[1-(4-fluorophenyl)methyl-1,4-dihydro-4-oxoquinolin-3-yl]-2,4-dioxobutanoic acid ethyl ester], the EC50 in the data set with HIV-1, IIIB strain turned out to be 3.5 µM.

Consider `O=C(O)C(=O)CC(=O)c1cn(Cc2ccc(F)cc2)c2ccccc2c1=O` [RDS1625, 4-[1-(4-fluorophenyl)methyl-1,4-dihydro-4-oxoquinolin-3-yl]-2,4-dioxobutanoic acid], for which the melting point – broadly, the temperature, or range, at which the solid turns liquid – is 207 to 209 °C. In the data set on HIV-1, IIIB strain, the EC50 is 40 µM.

As for `CCOC(=O)C(=O)CC(=O)c1cn(Cc2ccc(F)cc2)c2ccc(Cl)cc2c1=O` [RDS1755], the EC50 in the data set with HIV-1, IIIB strain turned out to be 5 µM.
